According to ChEMBL document CHEMBL4507319 (2021):

Columns and labels:
[1] = target: Serine/threonine-protein kinase 33 (Homo sapiens) (UniProt Q9BYT3); conditions: Compound concentration 1000.0 nM
[2] = target: Membrane-associated tyrosine- and threonine-specific cdc2-inhibitory kinase (Homo sapiens) (UniProt Q99640); conditions: Compound concentration 1000.0 nM
[3] = target: T1, Serine/threonine-protein kinase 17B (Homo sapiens) (UniProt O94768); conditions: Compound concentration 1000.0 nM
T1 sequence (whole entry): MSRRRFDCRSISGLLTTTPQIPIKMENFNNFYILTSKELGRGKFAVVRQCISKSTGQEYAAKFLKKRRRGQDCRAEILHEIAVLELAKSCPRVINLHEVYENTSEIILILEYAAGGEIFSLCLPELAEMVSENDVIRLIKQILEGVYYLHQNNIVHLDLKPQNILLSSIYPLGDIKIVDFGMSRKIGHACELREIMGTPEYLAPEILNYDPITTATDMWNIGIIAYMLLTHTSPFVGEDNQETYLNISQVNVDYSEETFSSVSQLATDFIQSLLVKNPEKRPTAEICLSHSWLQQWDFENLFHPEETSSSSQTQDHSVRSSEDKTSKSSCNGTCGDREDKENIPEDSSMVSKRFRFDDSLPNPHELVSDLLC

[4] = target: T2, Tyrosine-protein kinase TXK (Homo sapiens) (UniProt P42681); conditions: Compound concentration 1000.0 nM
T2 sequence (whole entry): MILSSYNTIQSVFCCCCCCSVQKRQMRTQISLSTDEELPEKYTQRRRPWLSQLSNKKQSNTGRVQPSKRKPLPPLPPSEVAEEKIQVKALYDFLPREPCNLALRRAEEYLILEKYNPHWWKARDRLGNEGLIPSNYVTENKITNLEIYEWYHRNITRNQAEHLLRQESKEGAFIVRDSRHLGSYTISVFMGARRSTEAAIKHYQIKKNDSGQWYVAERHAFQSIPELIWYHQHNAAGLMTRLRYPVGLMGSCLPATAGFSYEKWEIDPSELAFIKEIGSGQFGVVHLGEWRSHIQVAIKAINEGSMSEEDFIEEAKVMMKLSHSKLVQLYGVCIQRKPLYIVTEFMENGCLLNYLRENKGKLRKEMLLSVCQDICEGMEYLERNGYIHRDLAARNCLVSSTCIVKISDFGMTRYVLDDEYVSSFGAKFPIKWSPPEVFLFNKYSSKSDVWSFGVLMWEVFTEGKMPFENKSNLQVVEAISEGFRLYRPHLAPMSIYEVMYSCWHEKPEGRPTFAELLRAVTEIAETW

[5] = target: T3, Mitogen-activated protein kinase kinase kinase 7 (Homo sapiens) (UniProt O43318); conditions: Compound concentration 1000.0 nM
T3 sequence (whole entry): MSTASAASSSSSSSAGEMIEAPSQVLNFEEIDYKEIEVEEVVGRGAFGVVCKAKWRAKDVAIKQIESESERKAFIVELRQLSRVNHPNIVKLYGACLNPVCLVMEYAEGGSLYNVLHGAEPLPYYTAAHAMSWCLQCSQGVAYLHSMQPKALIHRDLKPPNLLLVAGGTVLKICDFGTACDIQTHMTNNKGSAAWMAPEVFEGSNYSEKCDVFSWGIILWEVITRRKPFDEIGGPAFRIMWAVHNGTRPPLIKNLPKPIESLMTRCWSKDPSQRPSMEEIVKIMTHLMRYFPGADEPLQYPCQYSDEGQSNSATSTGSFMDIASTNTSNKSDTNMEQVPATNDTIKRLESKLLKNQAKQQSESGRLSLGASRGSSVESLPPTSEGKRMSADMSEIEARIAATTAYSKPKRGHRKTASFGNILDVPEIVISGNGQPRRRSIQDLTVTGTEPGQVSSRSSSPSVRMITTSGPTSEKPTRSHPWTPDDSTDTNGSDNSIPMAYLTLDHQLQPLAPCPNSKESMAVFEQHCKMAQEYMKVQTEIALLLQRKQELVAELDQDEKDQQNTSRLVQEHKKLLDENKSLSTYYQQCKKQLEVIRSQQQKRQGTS

[6] = system: Fibroblast growth factor receptor 3 (Homo sapiens), P22607 [G697C]; conditions: Compound concentration 1000.0 nM
[7] = target: Death-associated protein kinase 3 (Homo sapiens) (UniProt O43293); conditions: Compound concentration 1000.0 nM
[8] = target: T4, Serine/threonine-protein kinase BRSK1 (Homo sapiens) (UniProt Q8TDC3); conditions: Compound concentration 1000.0 nM
T4 sequence (whole entry): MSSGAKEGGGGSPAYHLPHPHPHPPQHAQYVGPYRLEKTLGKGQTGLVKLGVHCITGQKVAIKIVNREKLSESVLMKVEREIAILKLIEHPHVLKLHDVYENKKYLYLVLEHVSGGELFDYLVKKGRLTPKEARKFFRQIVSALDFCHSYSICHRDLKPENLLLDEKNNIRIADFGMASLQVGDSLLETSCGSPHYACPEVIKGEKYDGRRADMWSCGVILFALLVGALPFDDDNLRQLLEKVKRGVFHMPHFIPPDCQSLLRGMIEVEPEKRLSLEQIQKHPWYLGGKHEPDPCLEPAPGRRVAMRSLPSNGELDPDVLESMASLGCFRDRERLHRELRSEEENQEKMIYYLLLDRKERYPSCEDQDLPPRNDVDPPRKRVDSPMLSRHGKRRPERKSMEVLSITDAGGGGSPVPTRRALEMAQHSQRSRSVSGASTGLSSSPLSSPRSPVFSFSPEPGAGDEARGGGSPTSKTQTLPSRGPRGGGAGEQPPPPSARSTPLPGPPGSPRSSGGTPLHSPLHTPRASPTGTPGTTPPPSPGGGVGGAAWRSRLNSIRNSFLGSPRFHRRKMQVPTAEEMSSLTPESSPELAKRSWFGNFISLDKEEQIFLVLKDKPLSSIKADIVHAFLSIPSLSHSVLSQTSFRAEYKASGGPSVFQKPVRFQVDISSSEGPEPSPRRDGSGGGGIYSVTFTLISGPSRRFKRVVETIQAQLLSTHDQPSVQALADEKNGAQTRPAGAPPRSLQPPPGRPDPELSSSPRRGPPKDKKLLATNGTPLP

[9] = target: Kappa-type opioid receptor (Homo sapiens) (UniProt P41145); conditions: Compound concentration 10.0 uM
[10] = target: Casein kinase I isoform alpha (Homo sapiens) (UniProt P48729); conditions: Compound concentration 1000.0 nM
[11] = target: Cyclin-dependent kinase 9 (Homo sapiens) (UniProt P50750); conditions: Compound concentration 1000.0 nM
Sequence of Cyclin-dependent kinase 9 (Homo sapiens) (P50750 whole entry): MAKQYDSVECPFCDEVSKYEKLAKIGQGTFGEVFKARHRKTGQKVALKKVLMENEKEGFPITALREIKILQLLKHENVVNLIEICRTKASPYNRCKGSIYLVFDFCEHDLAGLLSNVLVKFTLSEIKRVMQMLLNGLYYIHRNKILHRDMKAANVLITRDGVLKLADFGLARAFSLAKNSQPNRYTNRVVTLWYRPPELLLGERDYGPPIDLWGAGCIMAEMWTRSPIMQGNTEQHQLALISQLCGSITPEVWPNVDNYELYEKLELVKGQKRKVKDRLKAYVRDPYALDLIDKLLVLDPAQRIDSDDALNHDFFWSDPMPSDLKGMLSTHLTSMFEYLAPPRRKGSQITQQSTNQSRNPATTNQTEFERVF

Sequence of Membrane-associated tyrosine- and threonine-specific cdc2-inhibitory kinase (Homo sapiens) (Q99640 whole entry): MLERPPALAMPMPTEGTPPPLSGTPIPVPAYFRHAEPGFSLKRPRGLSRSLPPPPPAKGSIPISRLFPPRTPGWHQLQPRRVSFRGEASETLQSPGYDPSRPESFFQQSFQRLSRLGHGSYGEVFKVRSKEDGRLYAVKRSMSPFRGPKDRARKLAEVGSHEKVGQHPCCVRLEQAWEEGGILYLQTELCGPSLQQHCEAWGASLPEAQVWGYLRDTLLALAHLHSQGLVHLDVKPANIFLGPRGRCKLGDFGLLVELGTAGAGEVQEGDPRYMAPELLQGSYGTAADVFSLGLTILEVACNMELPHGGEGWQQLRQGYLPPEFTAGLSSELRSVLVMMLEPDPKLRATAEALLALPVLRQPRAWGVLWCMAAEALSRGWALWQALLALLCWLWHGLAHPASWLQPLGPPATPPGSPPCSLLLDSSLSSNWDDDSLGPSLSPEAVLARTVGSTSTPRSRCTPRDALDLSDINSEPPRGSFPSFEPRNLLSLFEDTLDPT
Sequence of Kappa-type opioid receptor (Homo sapiens) (P41145 whole entry, canonical isoform): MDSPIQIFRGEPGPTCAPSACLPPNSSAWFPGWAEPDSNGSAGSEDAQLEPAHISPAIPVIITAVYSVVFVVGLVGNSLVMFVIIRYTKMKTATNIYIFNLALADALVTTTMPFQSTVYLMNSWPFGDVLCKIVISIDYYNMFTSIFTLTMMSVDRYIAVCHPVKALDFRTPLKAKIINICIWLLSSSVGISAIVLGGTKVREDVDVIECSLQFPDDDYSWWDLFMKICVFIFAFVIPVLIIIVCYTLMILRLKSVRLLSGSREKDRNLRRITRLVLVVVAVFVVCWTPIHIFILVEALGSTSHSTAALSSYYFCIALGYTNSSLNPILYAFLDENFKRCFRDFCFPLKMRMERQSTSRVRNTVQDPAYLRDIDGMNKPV
Sequence of Death-associated protein kinase 3 (Homo sapiens) (O43293 whole entry, looked up): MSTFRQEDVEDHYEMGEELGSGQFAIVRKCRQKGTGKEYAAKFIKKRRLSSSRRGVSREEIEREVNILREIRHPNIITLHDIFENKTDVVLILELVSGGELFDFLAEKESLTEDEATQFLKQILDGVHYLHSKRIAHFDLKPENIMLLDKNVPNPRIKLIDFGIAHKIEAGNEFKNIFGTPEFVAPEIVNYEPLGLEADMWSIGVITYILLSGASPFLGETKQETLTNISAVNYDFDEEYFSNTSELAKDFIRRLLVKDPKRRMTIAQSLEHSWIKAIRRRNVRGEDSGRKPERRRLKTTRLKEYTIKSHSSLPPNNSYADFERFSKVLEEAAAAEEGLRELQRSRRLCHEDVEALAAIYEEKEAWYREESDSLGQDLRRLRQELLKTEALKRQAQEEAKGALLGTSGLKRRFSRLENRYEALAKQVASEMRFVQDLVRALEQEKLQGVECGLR
Sequence of Casein kinase I isoform alpha (Homo sapiens) (P48729 2-337 limits assumed): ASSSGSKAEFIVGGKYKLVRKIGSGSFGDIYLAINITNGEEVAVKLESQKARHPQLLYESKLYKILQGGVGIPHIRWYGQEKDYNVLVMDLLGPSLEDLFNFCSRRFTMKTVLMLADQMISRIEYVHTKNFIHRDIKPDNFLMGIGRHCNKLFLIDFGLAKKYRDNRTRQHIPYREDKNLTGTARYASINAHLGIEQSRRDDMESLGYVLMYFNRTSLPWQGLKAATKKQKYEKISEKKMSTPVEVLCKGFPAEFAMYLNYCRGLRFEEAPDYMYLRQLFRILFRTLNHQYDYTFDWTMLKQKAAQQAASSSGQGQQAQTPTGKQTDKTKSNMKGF
Sequence of Serine/threonine-protein kinase 33 (Homo sapiens) (Q9BYT3 whole entry, looked up): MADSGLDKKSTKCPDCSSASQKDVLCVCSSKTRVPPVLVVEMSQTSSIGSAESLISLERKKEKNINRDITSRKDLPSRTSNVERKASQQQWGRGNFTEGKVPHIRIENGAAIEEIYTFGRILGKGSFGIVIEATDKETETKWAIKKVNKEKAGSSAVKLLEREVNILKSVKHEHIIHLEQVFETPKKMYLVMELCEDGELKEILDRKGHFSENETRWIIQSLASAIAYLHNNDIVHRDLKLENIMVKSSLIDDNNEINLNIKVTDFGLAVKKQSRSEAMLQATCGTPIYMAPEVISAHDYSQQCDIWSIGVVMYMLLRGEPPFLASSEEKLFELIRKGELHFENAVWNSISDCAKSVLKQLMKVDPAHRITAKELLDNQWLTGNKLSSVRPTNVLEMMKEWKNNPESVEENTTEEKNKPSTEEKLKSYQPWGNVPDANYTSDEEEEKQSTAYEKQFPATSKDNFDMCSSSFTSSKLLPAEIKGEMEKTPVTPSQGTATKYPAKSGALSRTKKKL
Sequence of Fibroblast growth factor receptor 3 (Homo sapiens), P22607 [G697C] (P22607 whole entry G697C): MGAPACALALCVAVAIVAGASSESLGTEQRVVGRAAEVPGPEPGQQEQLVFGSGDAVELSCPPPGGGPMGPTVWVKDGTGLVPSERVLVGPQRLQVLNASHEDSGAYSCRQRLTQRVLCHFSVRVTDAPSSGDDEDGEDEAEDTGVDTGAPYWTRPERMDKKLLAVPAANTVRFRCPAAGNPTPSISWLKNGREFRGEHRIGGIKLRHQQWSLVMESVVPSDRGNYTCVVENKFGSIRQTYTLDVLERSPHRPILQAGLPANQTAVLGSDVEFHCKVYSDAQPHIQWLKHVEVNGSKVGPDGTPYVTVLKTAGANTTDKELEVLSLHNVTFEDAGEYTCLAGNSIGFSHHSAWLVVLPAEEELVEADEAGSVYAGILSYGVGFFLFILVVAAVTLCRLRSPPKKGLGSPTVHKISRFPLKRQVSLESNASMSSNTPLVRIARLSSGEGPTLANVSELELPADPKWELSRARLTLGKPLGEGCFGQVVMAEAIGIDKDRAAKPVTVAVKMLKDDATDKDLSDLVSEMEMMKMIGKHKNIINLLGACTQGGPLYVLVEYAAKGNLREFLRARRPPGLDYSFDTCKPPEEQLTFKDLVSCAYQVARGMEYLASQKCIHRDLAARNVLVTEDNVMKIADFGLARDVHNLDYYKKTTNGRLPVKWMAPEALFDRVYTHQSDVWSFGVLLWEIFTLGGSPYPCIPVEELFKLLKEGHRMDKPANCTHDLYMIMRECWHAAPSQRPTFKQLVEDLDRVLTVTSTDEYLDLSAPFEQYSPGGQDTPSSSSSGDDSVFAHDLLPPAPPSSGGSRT

CC1=C(C#N)C(c2ccc3c(c2)c(NC(=O)c2ccccc2C)nn3C)C(C#N)=C(C)N1 [BAY-974]
inactive: residual activity [1] 100% | residual activity [2] 99% | residual activity [3] 88% | residual activity [4] 100% | residual activity [5] 74% | residual activity [6] 93% | residual activity [7] 88% | residual activity [8] 100% | inhibition [9] 21.6% | residual activity [10] 70% | residual activity [11] 100%

CCc1ccccc1C(=O)Nc1n[nH]c2c(C)c(F)c(C3C(C#N)=C(C)N(C)C(C)=C3C#N)cc12 [BAY-3827]
inactive: residual activity [1] 100% | residual activity [2] 100% | residual activity [3] 100% | residual activity [4] 84% | residual activity [5] 92% | residual activity [6] 74% | residual activity [7] 71% | residual activity [8] 55% | inhibition [9] 16.1% | residual activity [10] 96% | residual activity [11] 94%
